From patent US9409952B2, “Peptide-compound cyclization method” (Chugai Seiyaku Kabushiki Kaisha, priority 2011, dated 2016)
Where two headings read alike, the source gives them in different places. Starred links: 1 amine or outer side, 2 acyl side, 3 side chain; linkers in the order of their positions; H or OH if unused. Positions of bridges follow the written chain, without caps; N, C: chain ends. Non-standard residues stand in square brackets, D forms with d. Residues, ends and D or L forms follow the SMILES beside them. ξ: configuration not given here. *: point of attachment. Phe(3-(CH2)4CO) = O=C([C@H](Cc1cccc(CCCCC(=O)[*:3])c1)N[*:1])[*:2]; NMePhe(3-Cl) = CN[C@@H](Cc1cccc(Cl)c1)C(=O)O; NMeF = CN[C@@H](Cc1ccccc1)C(=O)O; NMeI = CC[C@H](C)[C@H](NC)C(=O)O; NMeβAla = CN(CCC(=O)[*:2])[*:1]; NMeξIle = CC[C@H](C)C(NC)C(=O)O; NMeL = CN[C@@H](CC(C)C)C(=O)O; Phg = N[C@H](C(=O)O)c1ccccc1; NMeV = CN[C@H](C(=O)O)C(C)C; NMeA = CN[C@@H](C)C(=O)O; Piperidide = C1CCN(*)CC1; ξD = NC(CC(=O)O)C(=O)O; ξL = CC(C)CC(N)C(=O)O; ξT = CC(O)C(N)C(=O)O; Sar = CNCC(=O)O; tBu = CC(C)(C)*

Columns and labels:
[1] = PAMPA (parallel artificial membrane permeability assay); assay type: in vitro ADME; conditions: PAMPA
Method in brief: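 Artificial membrane was 10% (w/v) egg lecithin plus 0.5% (w/v) cholesterol in dodecane on a PVDF filter. A 10 mM DMSO stock was added at 0.5% (v/v) to donor buffer (50 mM MOPSO, pH 6.5, 5.0% glycocholic acid). After 18 h at 37 °C, LC/MS or LC/UV gave donor and acceptor levels for Pe.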

[2] = Metabolic stability in human hepatic microsome; assay type: in vitro ADME; conditions: microsomes
[3] = membrane permeation rate (Pe), 50 mM MOPSO buffer pH 6.5 with 5.0% glycocholic acid, 37° C., 18 hours, read-out: iPAMPA Pe
[4] = pH 7.4, human hepatic microsome, NADPH(+), read-out: CL NADPH(+)

Row | SMILES | Papp at 18 hours, 50 µM [1, 3] [×10⁻⁶ cm/s] | microsomal CLint at 1 uM [2, 4] [µL/min/mg] | Papp at 18 hours, 50 µM ([1]; pH 6.5) [×10⁻⁶ cm/s] | microsomal CLint at 1 uM ([2]; human, pH 7.4, CL NADPH(+)) [µL/min/mg]
1 | CC(C)C[C@H]1C(=O)N[C@@H](Cc2ccccc2)C(=O)N[C@@H](COC(C)(C)C)C(=O)N(C)[C@@H](CC(C)C)C(=O)N(C)[C@@H](CC(C)C)C(=O)N[C@@H]([C@@H](C)O)C(=O)N[C@H](C(=O)N2CCCCC2)CC(=O)N(C)CCC(=O)N(C)[C@@H](Cc2ccccc2)C(=O)NCC(=O)N1C [DP-426] ([NMeβAla][NMeF]G[NMeL]FS(tBu)[NMeL][NMeL]TD-Piperidide; lactam N-10) | 36 | 546 | – | –
2 | CC(C)C[C@H]1C(=O)N[C@@H](COC(C)(C)C)C(=O)N(C)[C@@H](CC(C)C)C(=O)N[C@H](C(=O)N2CCCCC2)Cc2cccc(c2)CCCCC(=O)N(C)[C@@H](C)C(=O)N(C)[C@@H](Cc2ccccc2)C(=O)N(C)[C@@H](CC(C)C)C(=O)N[C@@H]([C@@H](C)O)C(=O)N(C)CC(=O)N1C [DP-838] ([NMeA][NMeF][NMeL]T[Sar][NMeL]S(tBu)[NMeL][Phe(3-(CH2)4CO)]-Piperidide; lactam N-9) | 54 | 224 | – | –
3 | CC[C@H](C)[C@@H]1NC(=O)[C@H](CC(C)C)NC(=O)[C@H](C)N(C)C(=O)[C@H](CC(C)C)N(C)C(=O)[C@H](CC(C)C)NC(=O)[C@H](Cc2cccc(Cl)c2)N(C)C(=O)[C@H]([C@@H](C)O)NC(=O)[C@H](C)N(C)C(=O)[C@H](C(C)C)NC(=O)[C@H](C)N(C)C(=O)C[C@@H](C(=O)N(C)[C@@H](Cc2ccccc2)C(=O)N(C)[C@@H](CC(C)C)C(=O)N[C@H](C(=O)N2CCCCC2)[C@@H](C)CC)NC1=O [DP-950] ([NMeA]V[NMeA]T[NMePhe(3-Cl)]L[NMeL][NMeA]LID[NMeF][NMeL]I-Piperidide; lactam N-11) | 0.1 | 12 | – | –
4 | CC[C@H](C)[C@H]1C(=O)N[C@@H](CC(C)C)C(=O)NCC(=O)N(C)[C@@H](CC(C)C)C(=O)N[C@@H](Cc2ccccc2)C(=O)N[C@@H]([C@@H](C)O)C(=O)N(C)[C@@H](C)C(=O)N[C@H](C(=O)N2CCCCC2)CC(=O)N(C)[C@@H](C)C(=O)N[C@@H](Cc2ccccc2)C(=O)N(C)[C@@H](C(C)C)C(=O)N[C@@H](CC(C)C)C(=O)N1C [DP-89] ([NMeA]F[NMeV]L[NMeI]LG[NMeL]FT[NMeA]D-Piperidide; lactam N-12) | – | – | 23 | 58
5 | CC(C)C[C@@H]1NC(=O)[C@H](CC(C)C)N(C)C(=O)[C@H](C)N(C)C(=O)[C@H]([C@@H](C)O)NC(=O)[C@H](Cc2ccccc2)N(C)C(=O)[C@@H](C)NC(=O)C[C@@H](C(=O)N2CCCCC2)NC1=O [DP-741] ([dA][NMeF]T[NMeA][NMeL]LD-Piperidide; lactam N-7) | 10 | 169 | – | –
6 | CC(C)C[C@H]1C(=O)N(C)[C@@H](CC(C)C)C(=O)NC(C(C)O)C(=O)N(C)[C@@H](Cc2ccccc2)C(=O)NCC(=O)N(C)[C@@H](C(C)C)C(=O)N[C@@H](Cc2ccccc2)C(=O)NC(C(=O)N2CCCCC2)CC(=O)N(C)CCC(=O)N[C@@H](COC(C)(C)C)C(=O)N1C (stereo partly drawn) [DP-50] ([NMeβAla]S(tBu)[NMeL][NMeL][ξT][NMeF]G[NMeV]F[ξD]-Piperidide; lactam N-10) | – | – | 35 | 80
7 | CC(C)C[C@H]1C(=O)N[C@H](C(=O)N2CCCCC2)Cc2cccc(c2)CCCCC(=O)N[C@@H]([C@@H](C)O)C(=O)N(C)[C@@H](C)C(=O)N(C)[C@@H](Cc2ccccc2)C(=O)NCC(=O)N(C)[C@@H](Cc2ccccc2)C(=O)N(C)[C@@H](CC(C)C)C(=O)N(C)[C@@H](CC(C)C)C(=O)N1C [DP-843] (T[NMeA][NMeF]G[NMeF][NMeL][NMeL][NMeL][Phe(3-(CH2)4CO)]-Piperidide; lactam N-9) | 31 | 505 | – | –
8 | CC[C@H](C)[C@@H]1NC(=O)[C@H](Cc2ccccc2)N(C)C(=O)[C@H](C)N(C)C(=O)CN(C)C(=O)[C@H]([C@@H](C)O)NC(=O)[C@H](C)N(C)C(=O)[C@H](C(C)C)N(C)C(=O)[C@H](C)NC(=O)CCN(C)C(=O)C[C@@H](C(=O)N(C)[C@@H](Cc2ccccc2)C(=O)N(C)[C@@H](Cc2ccccc2)C(=O)N[C@@H](C)C(=O)N2CCCCC2)NC1=O [DP-498] ([NMeβAla]A[NMeV][NMeA]T[Sar][NMeA][NMeF]ID[NMeF][NMeF]A-Piperidide; lactam N-10) | 2.7 | 9 | – | –
9 | CC(C)C[C@@H]1NC(=O)CCN(C)C(=O)C[C@@H](C(=O)N2CCCCC2)NC(=O)[C@H](CC(C)C)N(C)C(=O)[C@H](CC(C)C)NC(=O)[C@H](Cc2ccccc2)NC(=O)[C@H](C)NC(=O)[C@H]([C@@H](C)O)NC(=O)[C@H](CC(C)C)NC(=O)CN(C)C(=O)[C@H](CC(C)C)NC1=O [DP-324] ([NMeβAla]LL[Sar]LTAFL[NMeL]D-Piperidide; lactam N-11) | 7.7 | 59 | – | –
10 | CC[C@H](C)[C@@H]1NC(=O)[C@H](CC(C)C)N(C)C(=O)CN(C)C(=O)[C@H]([C@@H](C)O)NC(=O)[C@H](C)N(C)C(=O)C[C@@H](C(=O)N(C)[C@@H](C)C(=O)N[C@@H](CC(C)C)C(=O)N[C@H](C(=O)N(C)[C@@H](C)C(=O)N[C@@H](C)C(=O)N2CCCCC2)C(C)C)NC(=O)[C@H](CC(C)C)N(C)C(=O)[C@H](Cc2ccccc2)N(C)C(=O)[C@H](CC(C)C)N(C)C1=O [DP-659] ([NMeA]T[Sar][NMeL]I[NMeL][NMeF][NMeL]D[NMeA]LV[NMeA]A-Piperidide; lactam N-9) | 22 | 13 | – | –
11 | CC[C@H](C)[C@@H]1NC(=O)[C@H](Cc2cccc(Cl)c2)N(C)C(=O)[C@H](CC(C)C)N(C)C(=O)C[C@@H](C(=O)N2CCCCC2)NC(=O)[C@H](CC(C)C)N(C)C(=O)[C@H](CC(C)C)N(C)C(=O)[C@H](CC(C)C)NC(=O)[C@H](C)N(C)C(=O)[C@@H](NC(=O)[C@H](CC(C)C)N(C)C(=O)[C@@H]2CCCN2C(=O)CO)CCCCNC1=O [DP-964, ^HOGly-Pro-MeLeu-*Lys-MeAla-Leu-MeLeu-MeLeu-Asp-piperidine-MeLeu-MePhe(3-Cl)-Ile* (cyclized at two * sites)] | – | – | 8.9 | 38
12 | CC(C)C[C@H]1C(=O)N(C)[C@@H](C)C(=O)N[C@@H](C)C(=O)N(C)[C@@H](C)C(=O)N(C)[C@@H](Cc2ccccc2)C(=O)N(C)[C@@H](C)C(=O)N[C@@H]([C@@H](C)O)C(=O)N(C)[C@@H](C)C(=O)N(C)[C@@H](C)C(=O)N[C@H](C(=O)N(C)[C@@H](Cc2ccccc2)C(=O)N[C@@H](C)C(=O)N2CCCCC2)CC(=O)N(C)[C@@H](C)C(=O)N1C [DP-368] ([NMeA][NMeL][NMeA]A[NMeA][NMeF][NMeA]T[NMeA][NMeA]D[NMeF]A-Piperidide; lactam N-11) | 1.6 | 6 | – | –
13 | CC[C@H](C)[C@@H]1NC(=O)[C@H](Cc2ccccc2)N(C)C(=O)[C@H](Cc2ccccc2)NC(=O)[C@H](C(C)C)N(C)C(=O)[C@H](CC(C)C)N(C)C(=O)[C@H](CC(C)C)NC(=O)[C@@H](C)NC(=O)C[C@@H](C(=O)N2CCCCC2)NC(=O)[C@H]([C@@H](C)O)NC(=O)[C@H](C)NC(=O)[C@H](C)N(C)C1=O [DP-226] ([dA]L[NMeL][NMeV]F[NMeF]I[NMeA]ATD-Piperidide; lactam N-11) | 32 | 46 | – | –
14 | CC[C@H](C)C1C(=O)N(C)[C@@H](Cc2ccccc2)C(=O)N[C@H](C(=O)N2CCCCC2)CC(=O)N(C)CC(=O)NC(CC(C)C)C(=O)N(C)[C@@H](Cc2ccccc2)C(=O)N(C)[C@@H](CC(C)C)C(=O)N[C@@H](C)C(=O)N(C)[C@@H](C(C)C)C(=O)N(C)[C@@H](C)C(=O)N[C@@H]([C@@H](C)O)C(=O)N(C)CC(=O)N1C (stereo partly drawn) [DP-64] ([Sar][ξL][NMeF][NMeL]A[NMeV][NMeA]T[Sar][NMeξIle][NMeF]D-Piperidide; lactam N-12) | – | – | 24 | 25
15 | CC[C@H](C)[C@H](NC(=O)CN(C)C(=O)[C@H](Cc1ccccc1)N(C)C(=O)[C@H](CC(C)C)N(C)C(=O)[C@@H](NC(=O)[C@@H]1CC(=O)N(C)[C@@H](C)C(=O)N[C@@H](CC(C)C)C(=O)N(C)[C@@H](CC(C)C)C(=O)N(C)[C@@H](C)C(=O)N(C)[C@@H](Cc2cccc(Cl)c2)C(=O)N[C@@H]([C@@H](C)O)C(=O)N1)C(C)C)C(=O)N1CCCCC1 [DP-912] ([NMeA]L[NMeL][NMeA][NMePhe(3-Cl)]TDV[NMeL][NMeF][Sar]I-Piperidide; lactam N-7) | 1.3 | 8 | – | –
16 | CC[C@H](C)[C@@H]1NC(=O)[C@H](CC(C)C)N(C)C(=O)CCN(C)C(=O)C[C@@H](C(=O)N(C)[C@@H](Cc2ccccc2)C(=O)N(C)[C@@H](Cc2ccccc2)C(=O)N[C@@H](C)C(=O)N2CCCCC2)NC(=O)[C@H](C(C)C)N(C)C(=O)[C@H](CC(C)C)N(C)C(=O)CN(C)C(=O)[C@H]([C@@H](C)O)NC(=O)[C@H](Cc2ccccc2)NC(=O)[C@H](C(C)C)N(C)C1=O [DP-496] ([NMeβAla][NMeL]I[NMeV]FT[Sar][NMeL][NMeV]D[NMeF][NMeF]A-Piperidide; lactam N-10) | 23 | 13 | – | –
17 | CC(C)C[C@@H]1NC(=O)[C@H](CC(C)C)NC(=O)[C@H](C)N(C)C(=O)C[C@@H](C(=O)N2CCCCC2)NC(=O)[C@H](C(C)C)N(C)C(=O)[C@H](CC(C)C)NC(=O)[C@H](Cc2ccccc2)NC(=O)[C@H]([C@@H](C)O)NC(=O)CN(C)C(=O)[C@H](CC(C)C)NC(=O)[C@H](c2ccccc2)NC1=O [DP-561] ([NMeA]LL[Phg]L[Sar]TFL[NMeV]D-Piperidide; lactam N-11) | 24 | 48 | – | –
18 | CC(C)C[C@H]1C(=O)N(C)[C@@H](Cc2ccccc2)C(=O)NCC(=O)N[C@H](C(=O)N2CCCCC2)CC(=O)N(C)CCC(=O)N[C@@H]([C@@H](C)O)C(=O)N(C)[C@@H](C)C(=O)N[C@@H](COC(C)(C)C)C(=O)N(C)[C@@H](Cc2ccccc2)C(=O)N1C [DP-80] ([NMeβAla]T[NMeA]S(tBu)[NMeF][NMeL][NMeF]GD-Piperidide; lactam N-9) | – | – | 12 | 43
